Assay results published in patent publication US8658668B2, “PI3 kinase/mTOR dual inhibitor” (Eli Lilly and Company, priority 2011, dated 2014).
pIC50: −log10 of the molar value.

Assays:
Assay type in all cases: cell-based
[1] = system: AKT1(pT308); experiment: AlphaScreen SureFire p-AKT (Thr308) in U87MG cells; conditions: Homo sapiens, U-87 MG, 1 h, n = 4, read-out: AKT1(pT308) Absolute IC50
Procedure: This homogeneous assay format uses immuno-sandwich capture of the phosphorylated analyte and then detection with antibody-coated Alphascreen beads to generate an amplified signal.
Maintain U87MG cells in U87MG growth medium consisting of DMEM (GIBCO 11965-092) supplemented with 10% fetal bovine serum (FBS, GIBCO, 10091-141), 1% nonessential amino acids (GIBCO, 11140-050) and 1% sodium pyruvate (GIBCO, 11360-070). Harvest cells using standard cell culture procedures and then count using Vi-Cell. Plate 100 μL of U87MG cells in growth medium (50,000 cells/well) into Costar #3596 96 well plates and incubate overnight at 37° C., 5% CO2.
Incubate for one h at 37° C., then remove the medium and add 50 μL of 1× SureFire Lysis Buffer (TGR Biosciences SureFire® Kit component) to each well and incubate at room temperature for 10 min with gentle shaking Transfer 6 μL lysate and 10 μL reaction mixture (60 parts reaction buffer/10 parts activation buffer/1 part each of donor and acceptor beads, Perkin Elmer, 6760617R) to a 384 well proxiplate (Perkin Elmer, 6006280) for the p-p70S6 kinase (Thr389) and p-AKT(Ser473) assays. Seal the plate and incubate at RT for 4 h. […] Read the plates on a Perkin Elmer EnVision equipped with a TurboModule using standard AlphaScreen® settings (Ex680 nm and Em520-620 nm). […]

[2] = system: H1975; experiment: Cell proliferation assay (CellTiter-Glo), H1975; conditions: Homo sapiens, NCI-H1975, 72 h
Procedure: (§1) Plate cells in a 96-well plate at 2000 cells/well in 100 μL of cell specific medium (for U87MG use DMEM, 10% FBS, 25 mM 4-(2-hydroxyethyl)-1-piperazineethanesulfonic acid (HEPES), 1.0 mM sodium pyruvate, and 0.1 mM Non Essential Amino Acids (ATCC Cat.#30-2002); for HT1080 use Eagle's MEM, 10% FBS (ATCC Cat.#30-2003); for H1975, A2780, SJSA-1 and 786-O use RPMI 1640, 10% FBS (ATCC Cat.#30-2001); for A204 use McCoy's 5A, 10% FBS (ATCC Cat.#30-2007) except in column 1 use medium only as the blank control. Incubate the plates overnight at 37° C. and 5% CO2. On the next day, prepare compound stocks at 1 mM in DMSO and serially dilute in DMSO in a 96-well round bottom polypropylene plate. Assay compounds at 10 concentrations in duplicate, 4 compounds per plate.
(§2) Transfer 4 μL of the DMSO serial dilutions to a 96 well plate and add 196 μL of culture medium to create a 10× stock for dosing. Gently transfer 11 μL of each dosing stock to the corresponding well of the cell plate resulting in a 0.2% DMSO concentration and a 111 μL final volume. […]
(§3) Prepared the CellTiter-Glo reagent (Promega, Cat: G7571) and add 100 µL to each well after the incubation is complete, homogenize the cells by mixing on an orbital shaker for 2 min and then incubate at RT for 10 min to allow the luminescent signal to stabilize. Record the luminescent raw data with a Wallac Victor V plate reader. […]

[3] = system: A2780; experiment: Cell proliferation assay (CellTiter-Glo), A2780; conditions: Homo sapiens, A2780, 72 h
Procedure: as §1, §2, §3

[4] = system: LXFA 1041 human tumor xenograft cells; experiment: Oncotest tumor clonogenic assay, LXFA 1041; conditions: colony formation, NSCLC LXFA 1041, adeno carcinoma, md, read-out: Absolute IC50
[5] = system: GXF 1172 human tumor xenograft cells; experiment: Oncotest tumor clonogenic assay, GXF 1172; conditions: colony formation, Gastric GXF 1172, signet-ring cell carcinoma, pd, read-out: Absolute IC50

pIC50 [1]: 6.97
pIC50 [2]: 6.99
pIC50 [3]: 7.05
pIC50 [4]: 6.69
pIC50 [5]: 6.85
Compound: CO[C@@H](C)Cn1c(=O)n(C)c2cnc3ccc(-c4cncc(C(C)(C)O)c4)cc3c21 [Example 1, 8-[5-(1-Hydroxy-1-methylethyl)pyridin-3-yl]-1-[(2S)-2-methoxypropyl]-3-methyl-1,3-dihydro-2H-imidazo[4,5-c]quinolin-2-one]
